Legend:
[1] = Absorption spectra of rhodol fluorophores in phosphate buffer; assay type: physicochemical; details: for εmax: 50 mM aqueous phosphate buffer at pH about 8.0; for Abs Max: 50 mM aqueous phosphate buffer at pH about 8.0, 25° C.
Experimental: (§1) The photophysical properties of the rhodol fluorophores in Table 1 were measured according to the procedures disclosed herein and are summarized in Table 1. Stock solutions were prepared by accurately weighting and dissolving about 5-10 mg of the rhodol fluorophores in Table 1 in acetonitrile (CH3CN). Absorbance solutions were prepared by further diluting the stock solution with 50 mM of potassium phosphate buffer at pH 8.0. Absorption spectra were recorded on a CARY 50 Bio UV-Visible spectrophotometer (obtainable from Varian Incorporation, Palo Alto, Calif.) under the control of a PC running the manufacturer supplied software package. Spectra were routinely acquired at 25° C., in 1 cm path length quartz cuvettes with a volume of 3.5 mL. Fluorescence spectra were recorded on a Hitachi F-2500 spectrofluorimeter (obtainable from Hitachi, Japan) under the control of a PC running the manufacturer supplied software package. Slit width was 2.5 nm for both the excitation spectrum and the fluorescence spectrum, and the photomultiplier voltage was […]. All spectra were corrected for emission intensity using the manufacturer-supplied photomultiplier curves. The quantum yields of the fluorophores may be estimated by comparison of the integrated area of the corrected emission spectrum of the sample with that of a reference solution, such as a solution of rhodamine 6 G in water (quantum efficiency 0.76). The concentration of the reference was adjusted to match the absorbance of the test sample.

[2] = Fluorescence spectra and quantum yield of rhodol fluorophores, rhodamine 6G as reference; assay type: physicochemical; details: 50 mM aqueous phosphate buffer at pH about 8.0, N.D. = no fluorescence detected; for QY (quantum yield): relative to rhodamine 6G (QY = 0.76 in water)
Experimental: as §1

SMILES | εmax [1] | Abs Max [1] | Em Max [2] | QY (quantum yield) [2]
CCN(CC)c1ccc2c(c1)Oc1cc(O)ccc1C21OC(=O)c2ccccc21 (centres unmarked) [A=H, R1=Et, R2=Et] | 47,000 cm^−1M^−1 | 522 nm | 549 nm | 0.08
O=C1OC2(c3ccc(O)cc3Oc3cc(NCc4ccccc4)ccc32)c2ccccc21 (centres unmarked) [A=H, R1=H, R2=Bn] | 71,000 cm^−1M^−1 | 503 nm | 529 nm | 0.95
C=CC(=O)Nc1ccc2c(c1)Oc1cc(O)ccc1C21OC(=O)c2ccccc21 (centres unmarked) [A=H, R1=H, R2=COCHCH2] | – | 462/490 | 524 nm | 0.19
O=C(Nc1ccc2c(c1)Oc1cc(O)ccc1C21OC(=O)c2ccccc21)c1ccccc1 (centres unmarked) [A=H, R1=H, R2=COPh] | – | 462/490 | 525 nm | 0.16
Nc1ccc2c(c1)Oc1cc(O)ccc1C21OC(=O)c2ccccc21 (centres unmarked) [A=H, R1=H, R2=H] | ~70,000 cm^−1M^−1 | 493 nm | 516 nm | 0.98
O=C1OC2(c3ccc(O)cc3Oc3cc(Nc4ccccc4)ccc32)c2ccccc21 (centres unmarked) [A=H, R1=H, R2=Ph] | 55,000 cm^−1M^−1 | 513 nm | – | –
CCCCNc1ccc2c(c1)Oc1cc(O)ccc1C21OC(=O)c2ccccc21 (centres unmarked) [A=H, R1=H, R2=n-Bu] | 60,000 cm^−1M^−1 | 508 nm | 533 nm | 0.90
CCCNc1ccc2c(c1)Oc1cc(O)ccc1C21OC(=O)c2ccccc21 (centres unmarked) [A=H, R1=H, R2=n-Pr] | 61,000 cm^−1M^−1 | 507 nm | 531 nm | 0.94
CN(C)c1ccc2c(c1)Oc1cc(O)ccc1C21OC(=O)c2ccccc21 (centres unmarked) [A=H, R1=Me, R2=Me] | 64,000 cm^−1M^−1 | 518 nm | 544 nm | 0.20
CCCCN(CCCC)c1ccc2c(c1)Oc1cc(O)ccc1C21OC(=O)c2ccccc21 (centres unmarked) [A=H, R1=n-Bu, R2=n-Bu] | 63,000 cm^−1M^−1 | 525 nm | 553 nm | 0.12
O=C1OC2(c3ccc(O)cc3Oc3cc(N4CCCCC4)ccc32)c2ccccc21 (centres unmarked) [A=H, R1R2=CH2CH2CH2CH2CH2] | 62,500 cm^−1M^−1 | 523 nm | 555 nm | 0.03
COCOc1ccc2c(c1)Oc1cc(NC(=O)c3ccccc3)ccc1C21OC(=O)c2ccccc21 (centres unmarked) [A=MOM, R1=H, R2=COPh] | – | 293 nm | – | –
CCCNc1ccc2c(c1)Oc1cc(OCOC)ccc1C21OC(=O)c2ccccc21 (centres unmarked) [A=MOM, R1=H, R2=n-Pr] | – | 494 nm | 532 nm | 0.35
COc1ccc2c(c1)Oc1cc(N)ccc1C21OC(=O)c2ccccc21 (centres unmarked) [A=Me, R1=H, R2=H] | – | 477 nm | 516 nm | 0.85

From US8148423B2, “Fluorophore compounds” (Versitech Limited, priority 2008, dated 2012)
